tested on: rats subjected to adrenalectomy (granuloma around implanted cotton wads); assay: granulom test (cotton-pellet test) on rats subjected to adrenalectomy: granuloma growth, thymus weight, body weight increase; assay type: in vivo, rat (Sprague-Dawley); conditions: Table 3; adrenalectomized young male Sprague-Dawley rats, topical in implanted cotton wads, day 8
Excerpt: In the following this active stereoisomeric component will always be designated B. As regards the steroids referred to in connection with the present invention the stereoisomeric mixture as well as the individual stereoisomeric components A and B have been investigated with regard to antiinflammatory activity in granulom test on rats subjected to adrenalectomy. The experimental procedure used corresponds largely to that described by G. Engelhardt: Arzneimittel-Forschung, 13, p. 588, 1963. According to this procedure the test substances are applied topically in the implanted cottom wads. It is thereby possible to study the local antiinflammatory effect in granulomas and also systemic effects in the form of retrogression of thymus and inhibition of bodyweight growth.
Young male rats of the Sprague-Dawley strain weighing about 110-130 g were subjected to adrenalectomy under ether narcosis. Two sterilized cottom wads of each about 6 mg were implanted simultaneously subcutaneously on the lateral side of the spinal. After awakening the animals were stored 5 per cage and were supplied with normal food and 1% sodium chloride solution as drinking water. On the eighth test day the animals were sacrificed by ether narcosis. The granuloma formed around the cotton wads were carefully recovered and thymus and body weights were measured. The two granuloma from each animal were dried over night at 80° C and weighed. After subtraction of the initial weight of the cotton wads the weight increase was used as a measure of the granulom growth.
The test substances were used dissolved in ethyl acetate. Under aseptic conditions 0.05 ml of said solutions were injected into each of the cotton wads, whereafter the solvent was allowed to evaporate in the desiccator. Normally 3 concentrations of each test substance with the standard doses 3.3, 30 and 270 γ/animal were investigated. Each test group normally comprised 10 rats. The cotton wads of the control group were injected with only ethyl acetate, but were in other respects treated in the same way. When considering the effects of the test substances the average values of granulom growth, thymus weight and body weight increase day 0-8 were measured in each group in absolute figures and in % of the corresponding figure of the control group. Dose-response curves were drafted and used for estimating the doses giving 50 % reduction of granulom growth and of thymus weight and 25 % decrease of body weight increase.
The following Table 4 discloses the results of the cotton-pellet test hereinbefore described, giving in addition figures for the therapeutic ratios, that is, the ratios of the ED50 for thymus weight inhibition divided by the ED50 for granuloma formation inhibition, and the ED25 for body weight increase inhibition over the ED50 for granuloma formation inhibition. As will be recognized, the higher the number for the therapeutic ratio, the more favorable the therapeutic ratio. […] As will be noted for the table, the therapeutic ratio for thymus over granuloma for the Component A esters is 4.2, 7.1, 4.5, 2.6, 2.2, 1.7, 2.5 and 1.7 times as good as it is for the corresponding Component B ester isomer, whereas the therapeutic ratio for the Component A ester isomer as far as body weight is granuloma 2.7, 3.3, 9.8, 6.4, 2.3, 2.8, 3.3 and 2.8 times as favorable as for the corresponding Component B ester isomer.

Compound | Dose required to obtain 50% inhibition of Granuloma growth
CCCCC1O[C@@H]2C[C@H]3[C@@H]4CCC5=CC(=O)C=C[C@]5(C)[C@@]4(F)[C@@H](O)C[C@]3(C)[C@]2(C(=O)CO)O1 (single isomer, unassigned) [4 A] | < 3 γ/animal
CC1(C)O[C@@H]2C[C@H]3[C@@H]4CCC5=CC(=O)C=C[C@]5(C)[C@H]4[C@@H](O)C[C@]3(C)[C@]2(C(=O)CO)O1 [Prednacinolone acetonide, reference compound] | 270 γ/animal
CCCC1O[C@@H]2C[C@H]3[C@@H]4CCC5=CC(=O)C=C[C@]5(C)[C@H]4[C@@H](O)C[C@]3(C)[C@]2(C(=O)COC(C)=O)O1 (single isomer, unassigned) [27 A] | < 3 γ/animal
CCCC1O[C@@H]2C[C@H]3[C@@H]4CCC5=CC(=O)C=C[C@]5(C)[C@@]4(F)[C@@H](O)C[C@]3(C)[C@]2(C(=O)COC(=O)c2cccnc2)O1 (single isomer, unassigned) [21 B] | < 3 γ/animal
CC1O[C@@H]2C[C@H]3[C@@H]4CCC5=CC(=O)C=C[C@]5(C)[C@@]4(F)[C@@H](O)C[C@]3(C)[C@]2(C(=O)COC(=O)c2cccnc2)O1 (single isomer, unassigned) [17 B] | 3 γ/animal
CC1O[C@@H]2C[C@H]3[C@@H]4CCC5=CC(=O)C=C[C@]5(C)[C@@]4(F)[C@@H](O)C[C@]3(C)[C@]2(C(=O)CO)O1 (single isomer, unassigned) [1 B] | 30 γ/animal
CCCCC(=O)OCC(=O)C12OC(CCC)OC1CC1C3CCC4=CC(=O)C=CC4(C)C3(F)C(O)CC12C (mixture of isomers) [22 A+B] | 10 γ/animal
CC1O[C@@H]2C[C@H]3[C@@H]4CCC5=CC(=O)C=C[C@]5(C)[C@@]4(F)[C@@H](O)C[C@]3(C)[C@]2(C(=O)COC(=O)c2cccnc2)O1 (single isomer, unassigned) [17 A] | 7 γ/animal
CC1O[C@@H]2C[C@H]3[C@@H]4C[C@H](F)C5=CC(=O)C=C[C@]5(C)[C@@]4(F)[C@@H](O)C[C@]3(C)[C@]2(C(=O)CO)O1 (single isomer, unassigned) [7 A] | 15 γ/animal
CCCC1OC2CC3C4CC(F)C5=CC(=O)C=CC5(C)C4(F)C(O)CC3(C)C2(C(=O)CO)O1 (mixture of isomers) [8 A+B] | 5 γ/animal
CC1(C)O[C@@H]2C[C@H]3[C@@H]4C[C@H](F)C5=CC(=O)C=C[C@]5(C)[C@@]4(F)[C@@H](O)C[C@]3(C)[C@]2(C(=O)CO)O1 [Fluocinolone acetonide, reference compound] | ~50 γ/animal
CCCCCC1O[C@@H]2C[C@H]3[C@@H]4CCC5=CC(=O)C=C[C@]5(C)[C@H]4[C@@H](O)C[C@]3(C)[C@]2(C(=O)CO)O1 (stereo partly drawn) [13 A+B] | 10 γ/animal
CCCCC1OC2CC3C4CCC5=CC(=O)C=CC5(C)C4(F)C(O)CC3(C)C2(C(=O)CO)O1 (mixture of isomers) [4 A+B] | < 3 γ/animal
CCCC1O[C@@H]2C[C@H]3[C@@H]4CCC5=CC(=O)C=C[C@]5(C)[C@H]4[C@@H](O)C[C@]3(C)[C@]2(C(=O)CO)O1 (single isomer, unassigned) [12 B] | 40 γ/animal
CCCC1O[C@@H]2C[C@H]3[C@@H]4C[C@H](F)C5=CC(=O)C=C[C@]5(C)[C@@]4(F)[C@@H](O)C[C@]3(C)[C@]2(C(=O)CO)O1 (single isomer, unassigned) [8 A] | 6 γ/animal
CC1O[C@@H]2C[C@H]3[C@@H]4CCC5=CC(=O)C=C[C@]5(C)[C@@]4(F)[C@@H](O)C[C@]3(C)[C@]2(C(=O)COC(=O)c2cc3ccccc3o2)O1 (stereo partly drawn) [16 B] | 3 γ/animal
CCCCC1O[C@@H]2C[C@H]3[C@@H]4CCC5=CC(=O)C=C[C@]5(C)[C@@]4(F)[C@@H](O)C[C@]3(C)[C@]2(C(=O)CO)O1 (single isomer, unassigned) [4 B] | < 3 γ/animal

same assay, conditions: Table 4; ED25 body weight increase inhibition over ED50 granuloma formation inhibition

Compound | Therapeutic ratio body weight/granuloma
CC1O[C@@H]2C[C@H]3[C@@H]4CCC5=CC(=O)C=C[C@]5(C)[C@@]4(F)[C@@H](O)C[C@]3(C)[C@]2(C(=O)COC(=O)c2cc3ccccc3o2)O1 (stereo partly drawn) [16 B] | 3.3
CC1O[C@@H]2C[C@H]3[C@@H]4C[C@H](F)C5=CC(=O)C=C[C@]5(C)[C@@]4(F)[C@@H](O)C[C@]3(C)[C@]2(C(=O)COC(=O)c2cc3ccccc3o2)O1 (stereo partly drawn) [23 B] | > 1.0

same assay, conditions: Table 4; ED50 thymus weight inhibition divided by ED50 granuloma formation inhibition

Compound | Therapeutic ratio thymus/granuloma
CC1O[C@@H]2C[C@H]3[C@@H]4CCC5=CC(=O)C=C[C@]5(C)[C@@]4(F)[C@@H](O)C[C@]3(C)[C@]2(C(=O)COC(=O)c2cc3ccccc3o2)O1 (stereo partly drawn) [16 B] | 3.3
CC1O[C@@H]2C[C@H]3[C@@H]4C[C@H](F)C5=CC(=O)C=C[C@]5(C)[C@@]4(F)[C@@H](O)C[C@]3(C)[C@]2(C(=O)COC(=O)c2cc3ccccc3o2)O1 (stereo partly drawn) [23 B] | > 1.3

same assay, conditions: rat, in vivo

Compound | ED25 body weight increase inhibition [µg/animal] | ED50 thymus weight inhibition [µg/animal] | Therapeutic ratio body weight/granuloma | Therapeutic ratio thymus/granuloma | decrease of body weight growth at the dose giving 50% inhibition of granulom growth | decrease of thymus weight at the dose giving 50% inhibition of granulom growth
CCCC1O[C@@H]2C[C@H]3[C@@H]4CCC5=CC(=O)C=C[C@]5(C)[C@H]4[C@@H](O)C[C@]3(C)[C@]2(C(=O)COC(C)=O)O1 (single isomer, unassigned) [27 A] | 100 | 100 | > 33.3 | > 33.3 | – | –
CC1(C)O[C@@H]2C[C@H]3[C@@H]4C[C@H](F)C5=CC(=O)C=C[C@]5(C)[C@@]4(F)[C@@H](O)C[C@]3(C)[C@]2(C(=O)CO)O1 [Fluocinolone acetonide, reference compound] | – | – | – | – | heavy decrease | heavy decrease
CC1(C)O[C@@H]2C[C@H]3[C@@H]4CCC5=CC(=O)C=C[C@]5(C)[C@@]4(F)[C@@H](O)C[C@]3(C)[C@]2(C(=O)CO)O1 [Triamcinolone acetonide, reference compound] | – | – | – | – | heavy decrease | heavy decrease
CC1O[C@@H]2C[C@H]3[C@@H]4CCC5=CC(=O)C=C[C@]5(C)[C@@]4(F)[C@@H](O)C[C@]3(C)[C@]2(C(=O)COC(=O)c2cc3ccccc3o2)O1 (stereo partly drawn) [16 B] | 10 | 10 | – | – | – | –
CC1O[C@@H]2C[C@H]3[C@@H]4C[C@H](F)C5=CC(=O)C=C[C@]5(C)[C@@]4(F)[C@@H](O)C[C@]3(C)[C@]2(C(=O)COC(=O)c2cc3ccccc3o2)O1 (stereo partly drawn) [23 B] | 3 | 4 | – | – | – | –

same assay, conditions: rat, in vivo, 11520 min

Compound | Dose required to obtain 25% inhibition of Body weight Increase | Dose required to obtain 50% inhibition of Thymus weight
CCCCC1O[C@@H]2C[C@H]3[C@@H]4CCC5=CC(=O)C=C[C@]5(C)[C@@]4(F)[C@@H](O)C[C@]3(C)[C@]2(C(=O)CO)O1 (single isomer, unassigned) [4 A] | 170 γ/animal | 100 γ/animal
CC1(C)O[C@@H]2C[C@H]3[C@@H]4CCC5=CC(=O)C=C[C@]5(C)[C@H]4[C@@H](O)C[C@]3(C)[C@]2(C(=O)CO)O1 [Prednacinolone acetonide, reference compound] | > 270 γ/animal | 105 γ/animal
CCCC1O[C@@H]2C[C@H]3[C@@H]4CCC5=CC(=O)C=C[C@]5(C)[C@H]4[C@@H](O)C[C@]3(C)[C@]2(C(=O)COC(C)=O)O1 (single isomer, unassigned) [27 A] | 100 γ/animal | 100 γ/animal
CCCC1O[C@@H]2C[C@H]3[C@@H]4CCC5=CC(=O)C=C[C@]5(C)[C@@]4(F)[C@@H](O)C[C@]3(C)[C@]2(C(=O)COC(=O)c2cccnc2)O1 (single isomer, unassigned) [21 B] | 5 γ/animal | 10 γ/animal
CC1O[C@@H]2C[C@H]3[C@@H]4CCC5=CC(=O)C=C[C@]5(C)[C@@]4(F)[C@@H](O)C[C@]3(C)[C@]2(C(=O)COC(=O)c2cccnc2)O1 (single isomer, unassigned) [17 B] | 20 γ/animal | 13 γ/animal
CC1O[C@@H]2C[C@H]3[C@@H]4CCC5=CC(=O)C=C[C@]5(C)[C@@]4(F)[C@@H](O)C[C@]3(C)[C@]2(C(=O)CO)O1 (single isomer, unassigned) [1 B] | 30 γ/animal | 50 γ/animal
CCCCC(=O)OCC(=O)C12OC(CCC)OC1CC1C3CCC4=CC(=O)C=CC4(C)C3(F)C(O)CC12C (mixture of isomers) [22 A+B] | 30 γ/animal | 50 γ/animal
CC1O[C@@H]2C[C@H]3[C@@H]4CCC5=CC(=O)C=C[C@]5(C)[C@@]4(F)[C@@H](O)C[C@]3(C)[C@]2(C(=O)COC(=O)c2cccnc2)O1 (single isomer, unassigned) [17 A] | 20 γ/animal | 45 γ/animal
CC1O[C@@H]2C[C@H]3[C@@H]4C[C@H](F)C5=CC(=O)C=C[C@]5(C)[C@@]4(F)[C@@H](O)C[C@]3(C)[C@]2(C(=O)CO)O1 (single isomer, unassigned) [7 A] | 20 γ/animal | 12 γ/animal
CCCC1OC2CC3C4CC(F)C5=CC(=O)C=CC5(C)C4(F)C(O)CC3(C)C2(C(=O)CO)O1 (mixture of isomers) [8 A+B] | 50 γ/animal | 10 γ/animal
CC1(C)O[C@@H]2C[C@H]3[C@@H]4C[C@H](F)C5=CC(=O)C=C[C@]5(C)[C@@]4(F)[C@@H](O)C[C@]3(C)[C@]2(C(=O)CO)O1 [Fluocinolone acetonide, reference compound] | 20 γ/animal | 14 γ/animal
CC1(C)O[C@@H]2C[C@H]3[C@@H]4CCC5=CC(=O)C=C[C@]5(C)[C@@]4(F)[C@@H](O)C[C@]3(C)[C@]2(C(=O)CO)O1 [Triamcinolone acetonide, reference compound] | 100 γ/animal | 70 γ/animal
CCCCCC1O[C@@H]2C[C@H]3[C@@H]4CCC5=CC(=O)C=C[C@]5(C)[C@H]4[C@@H](O)C[C@]3(C)[C@]2(C(=O)CO)O1 (stereo partly drawn) [13 A+B] | 90 γ/animal | 175 γ/animal
CCCCC1OC2CC3C4CCC5=CC(=O)C=CC5(C)C4(F)C(O)CC3(C)C2(C(=O)CO)O1 (mixture of isomers) [4 A+B] | 170 γ/animal | 70 γ/animal
CCCC1O[C@@H]2C[C@H]3[C@@H]4CCC5=CC(=O)C=C[C@]5(C)[C@H]4[C@@H](O)C[C@]3(C)[C@]2(C(=O)CO)O1 (single isomer, unassigned) [12 B] | 50 γ/animal | 70 γ/animal
CCCC1O[C@@H]2C[C@H]3[C@@H]4C[C@H](F)C5=CC(=O)C=C[C@]5(C)[C@@]4(F)[C@@H](O)C[C@]3(C)[C@]2(C(=O)CO)O1 (single isomer, unassigned) [8 A] | 50 γ/animal | 13 γ/animal
CC1O[C@@H]2C[C@H]3[C@@H]4CCC5=CC(=O)C=C[C@]5(C)[C@@]4(F)[C@@H](O)C[C@]3(C)[C@]2(C(=O)COC(=O)c2cc3ccccc3o2)O1 (stereo partly drawn) [16 B] | 10 γ/animal | 10 γ/animal
CCCCC1O[C@@H]2C[C@H]3[C@@H]4CCC5=CC(=O)C=C[C@]5(C)[C@@]4(F)[C@@H](O)C[C@]3(C)[C@]2(C(=O)CO)O1 (single isomer, unassigned) [4 B] | 100 γ/animal | 50 γ/animal

Source: patent US3996359A, “Novel stereoisomeric component A of stereoisomeric mixtures of 2'-unsymmetrical 16,17-methylenedioxy steroid 21-acylates, compositions thereof, and method of treating therewith” (AB Bofors, priority 1972, dated 1976)
